# Source: ChEMBL document CHEMBL1157091, “An unprecedented biogenetic-type chemical synthesis of 1(15-->11) abeotaxanes from normal taxanes” (J Nat Prod, 2010)
# Experiments:
# [1] = test system: MCF7; assay: Cytotoxicity against human MCF7 cells; assay type: functional, cell-based
# [2] = test system: MDA-MB-231; assay: Cytotoxicity against human MDA-MB-231 cells; assay type: functional, cell-based
# [3] = Cytotoxicity against human […] cells; assay type: cell-based
Structure (SMILES),IC50 [1],IC50 [2],IC50 [3]
C=C1[C@H]2C[C@@H]3C[C@H](OC(C)=O)C(C)=C([C@@H](OC(C)=O)[C@H](OC(C)=O)[C@]2(C)[C@@H](OC(C)=O)C[C@@H]1O)C3(C)C,> 50 µM,> 50 µM,> 50 µM
CC(=O)O[C@H]1C(=O)[C@@]2(C)[C@H]([C@H](OC(=O)c3ccccc3)[C@]3(O)C[C@H](OC(=O)[C@H](O)[C@@H](NC(=O)c4ccccc4)c4ccccc4)C(C)=C1C3(C)C)[C@]1(OC(C)=O)CO[C@@H]1C[C@@H]2O [PACLITAXEL],,,27 µM
